Reference: patent US9145386B2, “SOD-imitating metal complexes” (UNIVERSITAT DE VALENCIA, priority 2009, dated 2015)

What was measured:
[1] = Stability constants for the formation of metal complexes with Mn2+ (potentiometry); type: physicochemical
Description: (§1) Potentiometric measurements were performed to determine the acid-base behaviour of the new family of compounds, yielding the overall protonation constants required for the subsequent study on the formation of metal complexes with Cu(II), Fe(II) and Mn(II).
The evaporation was in fact carried out in flasks, in contact with atmospheric oxygen.

[2] = Potentiometric determination of protonation constants; type: physicochemical; settings: NaClO4 0.15 mol·dm^−3, 298.1±0.1 K; for logarithm of protonation constant, L + H = HL: standard deviation of last figure in brackets
Description: as §1
The numbers in brackets indicate the standard deviation of the last significant figure. ^a) The overall basicity constant is β=ΣKHjL

| SMILES | stability constant (log K), Mn + L = MnL [1] | stability constant, Mn + L + H2O = MnL(OH) + H^+ [1] | stability constant, MnL + OH = MnL(OH) [1] | Log β (overall basicity constant) [2] | logarithm of protonation constant, H2L + H = H3L [2] | logarithm of protonation constant, H3L + H = H4L [2] | logarithm of protonation constant, HL + H = H2L [2] | logarithm of protonation constant, L + H = HL [2] | stability constant, Mn + L + H = HMnL [1] | stability constant, MnL + H = HMnL [1] |
| --- | --- | --- | --- | --- | --- | --- | --- | --- | --- | --- |
| c1cc2nc(c1)CNCCN(CCNCc1ccnc3ccccc13)CCNC2 [Compound 1] | 8.91(1) | −1.36(1) | 3.45(1) | 27.00(1) | 5.94(1) | 2.82(1) | 8.31(1) | 9.93(1) | – | – |
| c1cc2nc(c1)CNCCN(CCNCc1ccc3ccccc3n1)CCNC2 [Compound 2] | 11.08(1) | – | – | 24.66(2) | 6.23(1) | – | 8.40(1) | 10.03(1) | 16.23(6) | 5.15(2) |
